Inhibition and inhibition in vivo data for 15 compounds are collected here from patent US9643957B2, “Heterocyclic compounds having cholesterol 24-hydroxylase activity” (TAKEDA PHARMACEUTICAL COMPANY LIMITED, priority 2012, dated 2017).

For one experiment, the target named is T1, human CH24H (Homo sapiens, UniProt Q9Y6A2).
T1 construct: Using Full-Length Mammalian Gene Collection No. 4819975 (Invitrogen) as a template; made in house; host or cells: FreeStyle 293-F cells, transient transfection with pcDNA3.1(+)/hCH24H; lysate supernatant, not purified
Briefly: Measurement of CH24H inhibitory activity (24-HC produced from [14C] cholesterol by human CH24H lysate). The following applies: 1 μM test compound, [14C] cholesterol 15 μM, 37° C. for 5 hr, read-out: Inhibitory Rate in 1 μM (%). The format is biochemical. The method in brief: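 Human CH24H lysate from FreeStyle 293 cells was incubated with compound and 15 μM [14C]cholesterol in 50 mM potassium phosphate pH 7.4 with 0.1% BSA, for 5 h at 37 °C. The 24-HC formed was extracted, separated by silica TLC and quantified by radioactivity. % inhibition was calculated versus no-compound reactions.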

For another experiment, the system named is 24-HC in the brain. Briefly: Quantification test of 24-HC in mouse brain after repeated oral administration. The format is in vivo. As to conditions: 30 mg/kg orally once a day for 3 days, female C57BL/6N mice, brain 24-HC at 16 hours after the third administration, relative to control group, read-out: Decreasing Rate in 30 mg/kg (%). The procedure: Animals used were 6-week-old female C57BL/6N mice (3 mice/group). A test compound was suspended in a 0.5% aqueous methylcellulose [133-14255 WAKO] solution (1 mg/mL). The body weight of the mice was measured, and the solution was forcibly administered orally and repeatedly once a day for 3 days. At 16 hours after the third administration, half of the brain was harvested, and the amount of 24-HC was measured.
The wet weight of the brain was measured, and the brain was homogenized with 4-fold amount of saline. This solution was used as a brain extract. The 24-HC in the brain extract was extracted with an acetonitrile solution (98% acetonitrile, 1.98% methanol, 0.02% formic acid), and quantified by HPLC. The average value of 24-HC amount was calculated and the results are shown in relative values with the control group as 100%.

T1 sequence (Q9Y6A2 whole entry): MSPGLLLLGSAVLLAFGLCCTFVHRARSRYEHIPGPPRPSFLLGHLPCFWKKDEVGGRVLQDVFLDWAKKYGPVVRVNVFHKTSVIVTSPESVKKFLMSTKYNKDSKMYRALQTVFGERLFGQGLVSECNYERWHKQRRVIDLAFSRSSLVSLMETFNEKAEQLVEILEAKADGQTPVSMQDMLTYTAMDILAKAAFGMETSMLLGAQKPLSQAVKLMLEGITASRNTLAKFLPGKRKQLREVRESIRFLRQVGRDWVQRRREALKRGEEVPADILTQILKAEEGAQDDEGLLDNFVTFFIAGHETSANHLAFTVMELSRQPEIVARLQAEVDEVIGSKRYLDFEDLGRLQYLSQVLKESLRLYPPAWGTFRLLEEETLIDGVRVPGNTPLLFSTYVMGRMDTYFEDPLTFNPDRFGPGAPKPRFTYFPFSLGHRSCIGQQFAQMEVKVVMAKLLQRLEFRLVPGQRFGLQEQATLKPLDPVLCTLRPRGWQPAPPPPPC

For the compound `Cc1cnn(-c2ccncc2N2CCC(C(=O)N3CCC[C@]3(C)C#N)CC2)c1` [Example 127, (2R)-2-methyl-1-((1-(4-(4-methyl-1H-pyrazol-1-yl)pyridin-3-yl)piperidin-4-yl)carbonyl)pyrrolidine-2-carbonitrile], the inhibition at 1 µM on human CH24H is 79%. Further, the inhibition in vivo at 30 mg/kg in the experiment on 24-HC in the brain came to 44%.
On to `N#C[C@H]1CCCN1C(=O)C1CCN(c2cnccc2-c2ccccn2)CC1` [Example 142, (2R)-1-((1-(2,4′-bipyridine-3′-yl)piperidin-4-yl)carbonyl)pyrrolidine-2-carbonitrile], for which the inhibition at 1 µM at human CH24H turned out to be 93%. In the experiment on 24-HC in the brain, the inhibition in vivo at 30 mg/kg amounted to 69%.
Taken in the same sequence, the figures for `COC[C@H]1CCCN1C(=O)C1CCN(c2cnccc2-c2nnc(C)s2)CC1` [Example 133, ((2R)-2-(methoxymethyl)pyrrolidin-1-yl)(1-(4-(5-methyl-1,3,4-thiadiazol-2-yl)pyridin-3-yl)piperidin-4-yl)methanone] were 87% and 70%.
For the compound `N#C[C@H]1CCCN1C(=O)C1CCN(c2cnccc2-n2cc(Cl)cn2)CC1` [Example 33, (2R)-1-((1-(4-(4-chloro-1H-pyrazol-1-yl)pyridin-3-yl)piperidin-4-yl)carbonyl)pyrrolidine-2-carbonitrile], the inhibition at 1 µM on human CH24H came out at 96%. In addition, the inhibition in vivo at 30 mg/kg with 24-HC in the brain worked out at 49%.
In the case of `Cc1cnn(-c2ccncc2N2CCC(C(=O)N3CC(F)(F)C[C@@H]3C#N)CC2)c1` [Example 130, (2R)-4,4-difluoro-1-((1-(4-(4-methyl-1H-pyrazol-1-yl)pyridin-3-yl)piperidin-4-yl)carbonyl)pyrrolidine-2-carbonitrile], the inhibition at 1 µM on human CH24H was found to be 93%. The inhibition in vivo at 30 mg/kg in the experiment on 24-HC in the brain was 54%.
As for `Cc1nnc(-c2ccncc2N2CCC(C(=O)N3CC(F)(F)C[C@@H]3C#N)CC2)s1` [Example 132, (2R)-4,4-difluoro-1-((1-(4-(5-methyl-1,3,4-thiadiazol-2-yl)pyridin-3-yl)piperidin-4-yl)carbonyl)pyrrolidine-2-carbonitrile], the inhibition at 1 µM on human CH24H came to 87%. The inhibition in vivo at 30 mg/kg in the experiment on 24-HC in the brain came to 65%.
For the compound `Cc1cnc(-c2ccncc2N2CCC(C(=O)N3CCC[C@@H]3C#N)CC2)s1` [Example 129, (2R)-1-((1-(4-(5-methyl-1,3-thiazol-2-yl)pyridin-3-yl)piperidin-4-yl)carbonyl)pyrrolidine-2-carbonitrile], the inhibition at 1 µM at human CH24H came out at 82%. Also, the inhibition in vivo at 30 mg/kg with 24-HC in the brain was 44%.
Regarding `Cc1cnn(-c2ccncc2N2CCC(C(=O)N(C)C3CCOCC3)CC2)c1` [Example 296, N-methyl-1-(4-(4-methyl-1H-pyrazol-1-yl)pyridin-3-yl)-N-(tetrahydro-2H-pyran-4-yl)piperidine-4-carboxamide], on human CH24H, the inhibition at 1 µM is 86%.
Same read-out and setting: under `CO[C@@H]1CCN(C(=O)C2CCN(c3cnccc3-n3cc(C)cn3)CC2)C1` [Example 302, ((3R)-3-methoxypyrrolidin-1-yl)(1-(4-(4-methyl-1H-pyrazol-1-yl)pyridin-3-yl)piperidin-4-yl)methanone] stands 87%; under `CC1CCCN1C(=O)C1CCN(c2cnccc2-n2cc(Cl)cn2)CC1` (centres unmarked) [Example 25, (1-(4-(4-chloro-1H-pyrazol-1-yl)pyridin-3-yl)piperidin-4-yl)(2-methylpyrrolidin-1-yl)methanone], 97%; under `Cc1cnn(-c2ccncc2N2CCN(C(=O)N(C)Cc3ccc(F)cc3)CC2)c1` [Example 297, N-(4-fluorobenzyl)-N-methyl-4-(4-(4-methyl-1H-pyrazol-1-yl)pyridin-3-yl)piperazine-1-carboxamide], 84%.
Consider `Cc1cnn(-c2ccncc2N2CCC(C(=O)N3CCC[C@@H]3C(N)=O)CC2)c1` [Example 124, 1-((1-(4-(4-methyl-1H-pyrazol-1-yl)pyridin-3-yl)piperidin-4-yl)carbonyl)-D-prolinamide], for which the inhibition at 1 µM at human CH24H turned out to be 81%. Also, in the experiment with 24-HC in the brain, the inhibition in vivo at 30 mg/kg was 59%.
For the compound `Cc1cnn(-c2ccncc2N2CCC(C(=O)N(C)[C@@H]3CCOC3)CC2)c1` [Example 306, N-methyl-1-(4-(4-methyl-1H-pyrazol-1-yl)pyridin-3-yl)-N-((3R)-tetrahydrofuran-3-yl)piperidine-4-carboxamide], the inhibition at 1 µM on human CH24H worked out at 85%.
As to `NC(=O)[C@@H]1CC(F)(F)CN1C(=O)C1CCN(c2cnccc2-n2cc(Cl)cn2)CC1` [Example 117, 1-((1-(4-(4-chloro-1H-pyrazol-1-yl)pyridin-3-yl)piperidin-4-yl)carbonyl)-4,4-difluoro-L-prolinamide], the inhibition at 1 µM on human CH24H was 85%.
For `O=C(C1CC1)N1CCN(c2cnccc2-c2ccccc2)CC1` [Example 152, cyclopropyl(4-(4-phenylpyridin-3-yl)piperazin-1-yl)methanone], on human CH24H, the inhibition at 1 µM is 90%.
